The nature of this assay: Inhibition of alpha-glucosidase activity. Also noted: species or system Saccharomyces cerevisiae.

What is called IC50 is the concentration that gives 50% inhibition. In turn, `O=C(O)/C=C/c1ccc(Cl)cc1` returned an IC50 of 390 µM. As for `COc1cccc(/C=C/C(=O)O)c1`, the figure is 580 µM; as for `CCCCOc1ccc(/C=C/C(=O)O)cc1`, > 5000 µM. As for `O=C(O)/C=C/c1ccc(OCc2ccccc2)cc1`, the figure is > 5000 µM; as for `O=C(O)/C=C/c1ccc(Oc2ccccc2)cc1`, 440 µM; as for `O=C(O)/C=C/c1ccc(Br)cc1`, > 5000 µM. Compound `O=C(O)/C=C/c1cccc(O)c1` yielded an IC50 of 1270 µM. As for `CCCCCCOc1ccc(/C=C/C(=O)O)cc1`, the figure is > 5000 µM. As for `O=C(O)/C=C/c1ccc([N+](=O)[O-])cc1`, the figure is > 5000 µM; as for `O=C(O)/C=C/c1ccc(F)cc1`, 270 µM. In turn, `CCOC(=O)/C=C/c1ccc(OC)cc1` [4-METHOXY ETHYL CINNAMATE] gave an IC50 of 50 µM.

As for `COc1ccc(/C=C/C(=O)O)cc1` [4-METHOXYCINNAMIC ACID], the 50% inhibitory concentration (IC50) amounted to 40 µM. On to `O=C(O)/C=C/c1ccccc1` [CINNAMIC ACID], for which the half-maximal inhibitory concentration (IC50) was > 5000 µM.

For the compound `O=C(O)/C=C/c1ccc(O)cc1` [COUMARIC ACID], inhibition was half-maximal at 200 µM (IC50). As for `COc1ccccc1/C=C/C(=O)O` [COUMARINIC ACID METHYL ETHER], the figure is 4340 µM. As for `OC[C@H]1NC[C@H](O)[C@@H](O)[C@@H]1O` [DUVOGLUSTAT], the figure is 5600 µM. As for `CCOC(=O)/C=C/c1ccccc1` [ETHYL CINNAMATE], the figure is > 5000 µM; as for `O=C(O)/C=C/c1ccccc1O` [O-COUMARIC ACID], > 5000 µM.

These data come from ChEMBL document CHEMBL1146762, “Structure-activity relationships of trans-cinnamic acid derivatives on alpha-glucosidase inhibition” (Bioorg Med Chem Lett, 2004).
